Where “and” joins values, the source holds several entries; their conditions need not be identical. Equal entries are not always repeated.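 Compound exposure: 48 hours, 5 concentrations, 96-well plates. GI50: concentration for 50% inhibition of growth. TGI denotes the concentration required for complete inhibition of growth.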
Assays:
Assay in all cases: inhibition of tumour cell growth, NCI panel, 48 h
ACHN renal = system: ACHN renal
COLO 205 colon = system: COLO 205 colon
IGROV1 ovarian = system: IGROV1 ovarian
K-562 leukemia = system: K-562 leukemia
MDA-MB-231 breast = system: MDA-MB-231 breast
RPMI-8226 leukemia = system: RPMI-8226 leukemia
SF-268 CNS = system: SF-268 CNS
SF-539 CNS = system: SF-539 CNS
SK-MEL-5 melanoma = system: SK-MEL-5 melanoma
SNB-19 CNS = system: SNB-19 CNS

Row | SMILES | TGI (ACHN renal) | TGI (COLO 205 colon) | TGI (IGROV1 ovarian) | TGI (K-562 leukemia) | TGI (MDA-MB-231 breast) | TGI (RPMI-8226 leukemia) | TGI (SF-268 CNS) | TGI (SF-539 CNS) | TGI (SK-MEL-5 melanoma) | TGI (SNB-19 CNS) | GI50 (ACHN renal) | GI50 (COLO 205 colon) | GI50 (IGROV1 ovarian) | GI50 (K-562 leukemia) | GI50 (MDA-MB-231 breast) | GI50 (RPMI-8226 leukemia) | GI50 (SF-268 CNS) | GI50 (SF-539 CNS) | GI50 (SK-MEL-5 melanoma) | GI50 (SNB-19 CNS)
1 | O=C(O)c1cc2ccccc2c(N=Nc2cc(C(F)(F)F)ccc2Cl)c1O | > 100 µM | > 100 µM | > 100 µM | > 100 µM | 86.7 µM | > 100 µM | > 100 µM | > 100 µM | > 100 µM | 21.5 µM |  |  |  |  |  |  |  |  |  | 
2 | O=C(O)c1cc2ccccc2oc1=O | > 100 µM | > 100 µM | > 100 µM | > 100 µM | > 100 µM | > 100 µM | > 100 µM | > 100 µM | > 100 µM | > 100 µM |  |  |  |  |  |  |  |  |  | 
3 | Clc1ccc(C2=Nn3c(nnc3-c3cc(Cl)cc(Cl)c3Cl)SC2)cc1 | 45.5 µM | > 100 µM | 24.7 µM | 35.1 µM | 97.1 µM | > 100 µM | > 100 µM | 48.3 µM | > 100 µM | 36.2 µM | 15.5 µM | 52.8 µM | 6.8 µM | 3.4 µM | 23.3 µM | 44.3 µM | 16.5 µM | 20.1 µM | 23.5 µM | 15.6 µM
4 | CCCCCCCCCc1cc[n+](CC(=O)c2ccc([N+](=O)[O-])cc2)cc1 | 2.82 µM | 1.45 µM | 3.29 µM | 2.02 µM | 1.7 µM | 2.15 µM | 2.81 µM | 3.1 µM | 1.54 µM | 1.8 µM | 1.42 µM | 0.344 µM | 1.66 µM | 0.338 µM | 0.447 µM | 0.439 µM | 1.34 µM | 1.65 µM | 0.42 µM | 0.478 µM
5 | CS(=O)(=O)CCNCc1ccc(-c2ccc3ncnc(Nc4ccc(OCc5cccc(F)c5)c(C(F)(F)F)c4)c3c2)o1 | 8.67 µM | 7.99 µM | 13.5 µM | 20 µM | 9.83 µM | 15.6 µM | 7.78 µM | 12.3 µM | 5.9 µM | 11.4 µM | 4.14 µM | 4.37 µM | 4.56 µM | 5.07 µM | 3.78 µM | 4.79 µM | 3.74 µM | 4.59 µM | 2.84 µM | 4.81 µM
6 | CS(=O)(=O)Nc1cccc(-c2cc(-c3ccccc3Cl)c(C#N)c(N)n2)c1 | 17.6 µM | 4.88 µM | 22.6 µM | > 100 µM | 15.5 µM | 27.5 µM | 19.1 µM | 2.72 µM | 13.6 µM | 19.6 µM | 0.679 µM | 0.472 µM | 0.769 µM | 0.344 µM | 0.712 µM | 0.702 µM | 1.05 µM | 0.361 µM | 0.448 µM | 0.859 µM
7 | O=c1c(O)cccc2cc(O)c(O)c(O)c12 | > 100 µM | > 100 µM | 27 µM | > 100 µM | > 100 µM | > 100 µM | > 100 µM | > 100 µM | > 100 µM | > 100 µM | 7.82 µM | > 100 µM | 5.06 µM | 3.95 µM | 7.5 µM | 6.77 µM | 5.34 µM | 5.01 µM | > 100 µM | 8.44 µM
8 | Cc1cc(O)c(C2=NN(c3ccc(S(N)(=O)=O)cc3)C(c3ccc(N(C)C)cc3)C2)c(C)c1Cl (stereo not given) | 30.6 µM | 25.4 µM | 59 µM | 44.8 µM | 27.2 µM | 37.5 µM | 37.2 µM | 29.3 µM | 27.8 µM | 62.6 µM | 14.9 µM | 12.3 µM | 18.3 µM | 14 µM | 11 µM | 7.25 µM | 18.7 µM | 15.7 µM | 14.5 µM | 22.2 µM
9 | CCn1cc(-c2ccnc3[nH]ccc23)c(-c2cccc(NC(=O)Nc3ccc(OCc4ccccc4)cc3)c2)n1 | > 25 µM | > 25 µM | > 25 µM | > 25 µM | > 25 µM | > 25 µM | > 25 µM | > 25 µM | > 25 µM | > 25 µM | 15.2 µM | 11.2 µM | 18.1 µM | 4.72 µM | 6.57 µM | 4.19 µM | > 19.7 µM | 12.9 µM | 13.5 µM | > 23.9 µM
10 | CN1CCN(c2ccc(Nc3nc(N)c(C(=O)c4ccc5c(c4)OCCO5)s3)cc2)CC1 | 6.57 µM | 7.35 µM | 9.27 µM | 18.3 µM | 9.94 µM | 11.6 µM | 10.5 µM | 8.33 µM | 8.88 µM | 24.3 µM | 1.85 µM | 2.27 µM | 2.27 µM | 2.43 µM | 3.22 µM | 3.85 µM | 3.84 µM | 4.25 µM | 3.52 µM | 4.14 µM
11 | Cc1nc(CN2CCCCC2)c(O)c(=O)[nH]1 | > 100 µM | > 100 µM | > 100 µM | > 100 µM | > 100 µM | > 100 µM | > 100 µM | > 100 µM | > 100 µM | > 100 µM |  |  |  |  |  |  |  |  |  | 
12 | Nc1ncnc2c1c(-c1cccc(OCc3ccccc3)c1)cn2C1CC(CN2CCC2)C1 (stereo not given) | 15.3 µM and > 10 µM | 1.55 µM and 1.29 µM | 12.2 µM and > 10 µM | 4.43 µM and 6.32 µM | 6.14 µM and > 10 µM | 5.41 µM and 5.31 µM | 6.54 µM and > 10 µM | 3.18 µM and 5.16 µM | 2.67 µM and 2.8 µM | 20.5 µM and > 10 µM | 3.87 µM and 7.43 µM | 0.262 µM and 0.245 µM | 3.32 µM and 4.84 µM | 1.71 µM and 2.08 µM | 2.12 µM and 3.82 µM | 1.9 µM and 2.18 µM | 2.24 µM and 3.68 µM | 1.65 µM and 1.95 µM | 1.31 µM and 1.42 µM | 6.37 µM and 7.05 µM
13 | CCN(CC)CCCC(C)Nc1nc(C)cc(Nc2ccc3nc(C)cc(N)c3c2)n1 (stereo not given) | > 100 µM | > 100 µM | > 100 µM | 51.5 µM | 85.8 µM | 23 µM | 50.9 µM | 43.6 µM | > 100 µM | 97 µM | > 100 µM | 39.5 µM | 28 µM | 27.1 µM | 29 µM | 4.52 µM | 22.1 µM | 20.8 µM | > 100 µM | 24.7 µM

Reference: PubChem BioAssay (NCI)
